{
  "source": "patent US6867320B2",
  "about": "“Substituted phenylalkanoic acid derivatives and use thereof” (Asahi Kasei Pharma Corporation, priority 2002, dated 2005)",
  "data": [
    {"tested_on": "PGE2 production from IL-1β-stimulated MG-63 cells", "assay": "Suppressing action on PGE2 production from IL-1β-stimulated MG-63 cells", "format": "cell-based", "conditions": "Homo sapiens, IL-1β 1 ng/ml, 18 hours, read-out: PGE2 production suppression ratio", "from_the_text": "1. Suppressing Action on PGE2 Production from IL-1β-Stimulated MG-63 Cells (1) Method for Measurement\nAn action of suppressing PGE2 production caused by interleukin (IL) 1β as an inflammatory stimulant was studied by the following method. Cells of MG-63, which is a human osteosarcoma cell line (purchased from Dainippon Pharmaceutical), were suspended in EMEM medium (GIBCO) containing 10% fetal bovine serum (BioFluid), and then inoculated to each well of 96-well culture plate at a density of 2×10^4 cells/well and cultured overnight. The medium was changed to EMEM medium containing 0.5% fetal bovine serum, and then a test compound was added with each well. Human interleukin-1β (ENDOGEN) was further added as an inflammatory stimulant at a final concentration of 1 ng/ml. The cells were further cultured for 18 hours. The culture supernatant was collected, and the PGE2 concentration in the culture supernatant was measured by using EIA kit (CAYMAN). By using a well which was not added with the stimulant as a negative control and a well which was added only with the stimulant as a positive control, suppression ratios on PGE2 production were calculated from produced amounts of PGE2 in the well added with the test compound using the following equation. PGE2 production suppression ratio=[1−(C−B)/(A−B)]×100 • A: PGE2 production amount of positive control • B: PGE2 production amount of negative control • C: PGE2 production amount in well added with test compound", "units": {"inhibition at 0.4 µM": "%"}, "values": [
      {"molecule": "O=C(O)CCc1ccc(OCc2ccc(C(F)(F)F)cc2)c(-c2ccc3[nH]ccc3c2)c1", "note": "[Compound 172, 3-{3-(1H-indol-5-yl)-4-[4-(trifluoromethyl)phenylmethyloxy]-phenyl}propionic acid]", "inhibition at 0.4 µM": "≥ 50"},
      {"molecule": "Cc1cc(C)cc(COc2ccc(CCC(=O)O)cc2-c2ccc3[nH]ccc3c2)c1", "note": "[Compound 175, 3-[4-(3,5-dimethylphenylmethyloxy)-3-(1H-indol-5-yl)phenyl]propionic acid]", "inhibition at 0.4 µM": "≥ 50"},
      {"molecule": "O=C(O)CCc1ccc(OC2CCCCCC2)c(-c2ccc3[nH]ccc3c2)c1", "note": "[Compound 184, 3-[4-cycloheptyloxy-3-(1H-indol-5-yl)phenyl]propionic acid]", "inhibition at 0.4 µM": "≥ 50"},
      {"molecule": "O=C(O)CCc1ccc(OCc2cc(Cl)cc(Cl)c2)c(-c2ccc3[nH]ccc3c2)c1", "note": "[Compound 188, 3-[4-(3,5-dichlorophenylmethyloxy)-3-(1H-indol-5-yl)phenyl]propionic acid]", "inhibition at 0.4 µM": "≥ 50"},
      {"molecule": "O=C(O)CCc1ccc(OCc2ccco2)c(-c2ccc3[nH]ccc3c2)c1", "note": "[Compound 194, 3-{4-[(furan-2-yl)methyloxy]-3-(1H-indol-5-yl)phenyl}propionic acid]", "inhibition at 0.4 µM": "≥ 50"},
      {"molecule": "O=C(O)CCc1ccc(OCc2ccoc2)c(-c2ccc3[nH]ccc3c2)c1", "note": "[Compound 196, 3-{4-[(furan-3-yl)methyloxy]-3-(1H-indol-5-yl)phenyl}propionic acid]", "inhibition at 0.4 µM": "≥ 50"},
      {"molecule": "O=C(O)CCc1ccc(OCc2cccs2)c(-c2ccc3[nH]ccc3c2)c1", "note": "[Compound 198, 3-{3-(1H-indol-5-yl)-4-[(thiophen-2-yl)methyloxy]phenyl}propionic acid]", "inhibition at 0.4 µM": "≥ 50"},
      {"molecule": "CC(C)n1ccc2cc(-c3cc(CCC(=O)O)ccc3OCC3CCCC3)ccc21", "note": "[Compound 238, 3-[4-cyclopentylmethyloxy-3-(1-isopropyl-1H-indol-5-yl)phenyl]propionic acid]", "inhibition at 0.4 µM": "≥ 50"},
      {"molecule": "CCCCn1ccc2cc(-c3cc(CCC(=O)O)ccc3OCC3CCCC3)ccc21", "note": "[Compound 240, 3-[3-(1-butyl-1H-indol-5-yl)-4-cyclopentylmethyloxyphenyl]propionic acid]", "inhibition at 0.4 µM": "≥ 50"},
      {"molecule": "O=C(O)CCc1ccc(OCC2CCCC2)c(-c2ccc3c(ccn3C3CCCC3)c2)c1", "note": "[Compound 242, 3-[3-(1-cyclopentyl-1H-indol-5-yl)-4-cyclopentylmethyloxyphenyl]propionic acid]", "inhibition at 0.4 µM": "≥ 50"},
      {"molecule": "Cc1cn(C)c2ccc(-c3cc(CCC(=O)O)ccc3OCC3CCCC3)cc12", "note": "[Compound 252, 3-[4-cyclopentylmethyloxy-3-(1,3-dimethyl-1H-indol-5-yl)phenyl]propionic acid]", "inhibition at 0.4 µM": "≥ 50"},
      {"molecule": "O=Cc1c[nH]c2ccc(-c3cc(CCC(=O)O)ccc3OCC3CCCC3)cc12", "note": "[Compound 254, 3-[4-cyclopentylmethyloxy-3-(3-formyl-1H-indol-5-yl)phenyl]propionic acid]", "inhibition at 0.4 µM": "≥ 50"},
      {"molecule": "Cn1cc(C=O)c2cc(-c3cc(CCC(=O)O)ccc3OCC3CCCC3)ccc21", "note": "[Compound 255, 3-[4-cyclopentylmethyloxy-3-(3-formyl-1-methyl-1H-indol-5-yl)phenyl]propionic acid]", "inhibition at 0.4 µM": "≥ 50"},
      {"molecule": "CC(=O)c1cn(C)c2ccc(-c3cc(CCC(=O)O)ccc3OCC3CCCC3)cc12", "note": "[Compound 259, 3-[3-(3-acetyl-1-methyl-1H-indol-5-yl)-4-cyclopentylmethyloxyphenyl]propionic acid]", "inhibition at 0.4 µM": "≥ 50"},
      {"molecule": "O=C(O)CCc1cc(Cl)c(OCC2CCCC2)c(-c2ccc3[nH]ccc3c2)c1", "note": "[Compound 263, 3-[3-chloro-4-cyclopentylmethyloxy-5-(1H-indol-5-yl)phenyl]propionic acid]", "inhibition at 0.4 µM": "≥ 50"},
      {"molecule": "Cn1ccc2cc(-c3cc(CCC(=O)O)cc(N)c3OCC3CCCC3)ccc21", "note": "[Compound 269, 3-[3-amino-4-cyclopentylmethyloxy-5-(1-methyl-1H-indol-5-yl)phenyl]propionic acid]", "inhibition at 0.4 µM": "≥ 50"},
      {"molecule": "Cc1[nH]c2ccc(-c3cc(CCC(=O)O)ccc3OCC3CCCCC3)cc2c1C", "note": "[Compound 273, 3-[4-cyclohexylmethyloxy-3-(2,3-dimethyl-1H-indol-5-yl)phenyl]propionic acid]", "inhibition at 0.4 µM": "≥ 50"},
      {"molecule": "O=C(O)CCc1ccc(OCC2CCCC2)c(-c2ccc3occc3c2)c1", "note": "[Compound 277, 3-[3-(benzo[b]furan-5-yl)-4-cyclopentylmethyloxyphenyl]propionic acid]", "inhibition at 0.4 µM": "≥ 50"},
      {"molecule": "Cc1oc2ccc(-c3cc(CCC(=O)O)ccc3OCC3CCCCC3)cc2c1C", "note": "[Compound 279, 3-[4-cyclohexylmethyloxy-3-(2,3-dimethylbenzo[b]furan-5-yl)phenyl]propionic acid]", "inhibition at 0.4 µM": "≥ 50"},
      {"molecule": "Cc1nc2cc(-c3cc(CCC(=O)O)ccc3OCC3CCCC3)ccc2s1", "note": "[Compound 283, 3-[4-cyclopentylmethyloxy-3-(2-methylbenzothiazol-5-yl)phenyl]propionic acid]", "inhibition at 0.4 µM": "≥ 50"},
      {"molecule": "Nc1nc2cc(-c3cc(CCC(=O)O)ccc3OCC3CCCC3)ccc2s1", "note": "[Compound 285, 3-[3-(2-aminobenzothiazol-5-yl)-4-cyclopentylmethyloxyphenyl]propionic acid]", "inhibition at 0.4 µM": "≥ 50"},
      {"molecule": "CNc1nc2ccc(-c3cc(CCC(=O)O)ccc3OCC3CCCC3)cc2s1", "note": "[Compound 297, 3-[4-cyclopentylmethyloxy-3-(2-methylaminobenzothiazol-6-yl)phenyl]propionic acid]", "inhibition at 0.4 µM": "≥ 50"},
      {"molecule": "Cn1c(=N)sc2cc(-c3cc(CCC(=O)O)ccc3OCC3CCCC3)ccc21", "note": "[Compound 303, 3-[4-cyclopentylmethyloxy-3-(2-imino-3-methyl-2,3-dihydrobenzothiazol-6-yl)phenyl]propionic acid]", "inhibition at 0.4 µM": "≥ 50"},
      {"molecule": "CN=c1sc2cc(-c3cc(CCC(=O)O)ccc3OCC3CCCC3)ccc2n1C", "note": "[Compound 305, 3-{4-cyclopentylmethyloxy-3-[3-methyl-2-(methylimino)-2,3-dihydrobenzothiazol-6-yl]phenyl}propionic acid]", "inhibition at 0.4 µM": "≥ 50"},
      {"molecule": "COc1nc2ccc(-c3cc(CCC(=O)O)ccc3OCC3CCCC3)cc2s1", "note": "[Compound 306, 3-[4-cyclopentylmethyloxy-3-(2-methoxybenzothiazol-6-yl)phenyl]propionic acid]", "inhibition at 0.4 µM": "≥ 50"},
      {"molecule": "Cc1nc2ccc(-c3cc(CCC(=O)O)ccc3OCC3CCCC3)cc2s1", "note": "[Compound 308, 3-[4-cyclopentylmethyloxy-3-(2-methylbenzothiazol-6-yl)phenyl]propionic acid]", "inhibition at 0.4 µM": "≥ 50"},
      {"molecule": "O=C(O)CCc1ccc(OCC2CCCC2)c(-c2ccc3[nH]c(=S)sc3c2)c1", "note": "[Compound 309, 3-[4-cyclopentylmethyloxy-3-(2-thioxo-2,3-dihydrobenzothiazol-6-yl)phenyl]propionic acid]", "inhibition at 0.4 µM": "≥ 50"},
      {"molecule": "O=C(O)CCc1ccc(OCC2CCCC2)c(-c2ccc3[nH]c(=O)sc3c2)c1", "note": "[Compound 310, 3-[4-cyclopentylmethyloxy-3-(2-oxo-2,3-dihydrobenzothiazol-6-yl)-phenyl]propionic acid]", "inhibition at 0.4 µM": "≥ 50"},
      {"molecule": "Cn1c(=O)sc2cc(-c3cc(CCC(=O)O)ccc3OCC3CCCC3)ccc21", "note": "[Compound 313, 3-[4-cyclopentylmethyloxy-3-(2-oxo-3-methyl-2,3-dihydrobenzothiazol-6-yl)phenyl]propionic acid]", "inhibition at 0.4 µM": "≥ 50"},
      {"molecule": "O=C(O)CCc1ccc(OCC2CCCC2)c(-c2cnc3ccccc3c2)c1", "note": "[Compound 315, 3-[4-cyclopentylmethyloxy-3-(quinolin-3-yl)phenyl]propionic acid]", "inhibition at 0.4 µM": "≥ 50"},
      {"molecule": "O=C(O)CCc1ccc(OCC2CCCCC2)c(-c2ccc3ncccc3c2)c1", "note": "[Compound 319, 3-[4-cyclohexylmethyloxy-3-(quinolin-6-yl)phenyl]propionic acid]", "inhibition at 0.4 µM": "≥ 50"},
      {"molecule": "O=C(O)CCc1ccc(OCC2CCCCC2)c(-c2ccc3[nH]c(=O)ccc3c2)c1", "note": "[Compound 321, 3-[4-cyclohexylmethyloxy-3-(2-oxo-1,2-dihydroquinolin-6-yl)-phenyl]propionic acid]", "inhibition at 0.4 µM": "≥ 50"},
      {"molecule": "O=C(O)CCc1ccc(OCc2ccccc2)c(-c2ccc3ccccc3c2)c1", "note": "[Compound 323, 3-[4-benzyloxy-3-(naphthalen-2-yl)phenyl]propionic acid]", "inhibition at 0.4 µM": "≥ 50"},
      {"molecule": "CC(C)(C)c1ccc(COc2ccc(CCC(=O)O)cc2-c2ccc3[nH]ccc3c2)cc1", "note": "[Compound 327, 3-[4-(4-t-butylphenylmethyloxy)-3-(1H-indol-5-yl)phenyl]propionic acid]", "inhibition at 0.4 µM": "≥ 50"},
      {"molecule": "O=C(O)CCc1ccc(OC2CCCCC2)c(-c2ccc3ncsc3c2)c1", "note": "[Compound 330, 3-[3-(benzothiazol-6-yl)-4-cyclohexyloxyphenyl]propionic acid]", "inhibition at 0.4 µM": "≥ 50"},
      {"molecule": "COC(=O)CCc1cc(-c2ccc3ccccc3c2)c(OC2CCCC2)c([N+](=O)[O-])c1", "note": "[Compound 331, methyl 3-[4-cyclopentyloxy-3-(naphthalen-2-yl)-5-nitrophenyl]propionate]", "inhibition at 0.4 µM": "≥ 50"},
      {"molecule": "Nc1cc(CCC(=O)O)cc(-c2ccc3ccccc3c2)c1OC1CCCC1", "note": "[Compound 333, 3-[3-amino-4-cyclopentyloxy-5-(naphthalen-2-yl)phenyl]propionic acid]", "inhibition at 0.4 µM": "≥ 50"},
      {"molecule": "O=C(O)CCc1cc(O)c(OCC2CCCC2)c(-c2ccc3ccccc3c2)c1", "note": "[Compound 568, 3-[4-cyclopentylmethyloxy-3-hydroxy-5-(naphthalen-2-yl)phenyl]propionic acid]", "inhibition at 0.4 µM": "≥ 50"}
    ]}
  ]
}
